{
  "source": "patent US10894035B2",
  "about": "“Use of indole compounds to stimulate the immune system” (priority 2015, dated 2021)",
  "key": {"[1]": {"molecular_target": "T1, sPLA2GIII (Homo sapiens, UniProt Q9NZ20)", "T1 sequence (Q9NZ20 20-509)": "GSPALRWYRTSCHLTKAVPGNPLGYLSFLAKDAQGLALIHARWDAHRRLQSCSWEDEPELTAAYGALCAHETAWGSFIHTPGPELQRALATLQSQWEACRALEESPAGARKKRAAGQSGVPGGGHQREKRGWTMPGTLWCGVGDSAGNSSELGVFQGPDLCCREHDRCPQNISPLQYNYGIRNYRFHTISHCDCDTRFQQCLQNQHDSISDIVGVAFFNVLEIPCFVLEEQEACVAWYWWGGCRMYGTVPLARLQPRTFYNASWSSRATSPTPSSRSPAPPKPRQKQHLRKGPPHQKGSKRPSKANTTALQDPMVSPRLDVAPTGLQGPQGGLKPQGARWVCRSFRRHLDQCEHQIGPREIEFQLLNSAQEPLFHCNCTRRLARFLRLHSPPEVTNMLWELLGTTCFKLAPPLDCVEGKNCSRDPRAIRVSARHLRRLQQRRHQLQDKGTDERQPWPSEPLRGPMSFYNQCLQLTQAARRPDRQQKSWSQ", "assay": "sPLA2 specificity panel (Table 1)", "format": "biochemical", "details": "panel of secreted PLA2, result in words"}, "[2]": {"molecular_target": "T2, sPLA2GIIE (Homo sapiens, UniProt Q9NZK7)", "T2 sequence (Q9NZK7 20-142)": "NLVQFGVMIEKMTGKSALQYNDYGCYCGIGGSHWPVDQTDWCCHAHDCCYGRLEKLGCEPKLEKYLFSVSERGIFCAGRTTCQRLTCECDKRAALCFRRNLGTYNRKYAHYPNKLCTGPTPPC", "assay": "sPLA2 specificity panel (Table 1)", "format": "biochemical", "details": "panel of secreted PLA2, result in words"}, "[3]": {"molecular_target": "T3, sPLA2G1B contained in plasma of viremic patients (Homo sapiens, UniProt P04054)", "T3 construct": "CD4 lymphocytes purified from healthy donors were exposed to sera from viremic HIV-infected patients at 3% dilution; from tissue; host or cells: plasma/sera of viremic HIV-infected patients, applied to CD4 T cells of healthy donors", "T3 sequence (P04054 23-148)": "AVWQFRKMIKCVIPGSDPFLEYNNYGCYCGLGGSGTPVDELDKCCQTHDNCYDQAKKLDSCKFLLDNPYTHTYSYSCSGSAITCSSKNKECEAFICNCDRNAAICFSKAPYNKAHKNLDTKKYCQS", "assay": "Bioassay of IL-7-induced pSTAT5 nuclear translocation in healthy-donor CD4 T cells exposed to plasma/sera of viremic HIV-infected patients", "format": "cell-based", "details": "for reversion of inhibition of pSTAT5 nuclear translocation: 50 μM compound; for reversal of plasma/sera-induced inhibition of IL-7-induced NT pSTAT5: 50 microM compound", "description": "Five sera were tested and the results are given as the median +/−SD.\nViremic patients (VP) included in the study had been HIV-positive for more than one year. […] All blood samples from VP were drawn at Hôpital Bicêtre or Centre Hospitalier de Gonesse.\n(§1) Inhibition of IL-7-induced phosphorylated STAT5 nuclear translocation (NTpSTAT) was measured as follows: VP plasma (5 or 10%) was first incubated with purified HD CD4 T cells (20 min) before stimulation by IL-7 (2 nM, 15 min.). Cells were then plated on polylysine coated glass slides before fixation by PFA (1.5%) and permeabilization by methanol (90% at −20° C.). pSTAT5 was then stained by rabbit anti-STAT5 and labeled with goat anti-rabbit-Atto642. The cells were analyzed by pulsed STED microscopy and the number of nuclei expressing pSTAT5 were counted.\nWe have already shown that sPLA2G1B contained in plasma of viremic patients through induction of aMMD induces a blockade of IL-7-induced nuclear translocation of phospho STAT5 (NT pSTAT5).\nThe effects of plasma from various HIV viremic patients (at least 5) were first titrated on the inhibition of IL-7-induced NTpSTAT5. The inhibition is measurable at 1% dilution of the plasma and the effect is maximum at 10% of the plasma. Consequently, in the experiments we used the different plasma at 3% dilution which gives between 30 to 70% of the maximum inhibition. […] The inhibition obtained with the recombinant enzyme reaches a plateau corresponding to a maximum inhibition of around 80%. By contrast, the plateau obtained when the plasma is used is around 90% inhibition, or more (compare data of FIGS. 1 and 2 with data FIG. 3).\nIn a further study, the plasma from 5 additional HIV-infected patients was tested. […] 100% inhibition of nuclear translocation of pSTAT5 is observed (see FIG. 4)."}, "[4]": {"molecular_target": "sPLA2GIB (Homo sapiens, UniProt P04054)", "sequence (P04054 23-148)": "as above", "assay": "sPLA2 specificity panel (Table 1)", "format": "biochemical", "details": "panel of secreted PLA2, result in words"}, "[5]": {"molecular_target": "T4, sPLA2GXIIA (Homo sapiens, UniProt Q9BZM1)", "T4 sequence (Q9BZM1 23-189)": "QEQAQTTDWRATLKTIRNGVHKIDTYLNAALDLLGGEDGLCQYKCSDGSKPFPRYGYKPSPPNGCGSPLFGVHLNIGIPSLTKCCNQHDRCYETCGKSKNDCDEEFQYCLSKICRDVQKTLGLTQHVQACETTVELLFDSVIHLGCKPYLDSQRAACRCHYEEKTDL", "assay": "sPLA2 specificity panel (Table 1)", "format": "biochemical", "details": "panel of secreted PLA2, result in words"}, "[6]": {"molecular_target": "T5, sPLA2GV (Homo sapiens, UniProt P39877)", "T5 sequence (P39877 21-138)": "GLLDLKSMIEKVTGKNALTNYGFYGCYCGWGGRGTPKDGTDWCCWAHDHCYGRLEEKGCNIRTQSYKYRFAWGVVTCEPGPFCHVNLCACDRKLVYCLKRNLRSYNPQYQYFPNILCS", "assay": "sPLA2 specificity panel (Table 1)", "format": "biochemical", "details": "panel of secreted PLA2, result in words", "quoted_text": "IC50 values for a panel of secreted Phospholipase A2 (sPLA2) are shown."}, "[7]": {"molecular_target": "sPLA2G1B (Homo sapiens, UniProt P04054)", "sequence (P04054 23-148)": "as the sequence (P04054 23-148) above", "assay": "E. coli membrane sPLA2 activity assay ([3H]oleic acid release)", "format": "biochemical", "protocol": "The activity of compounds of formula A towards sPLA2G1B can be tested and verified using the E. coli membrane assay described below:\nThe assay is based on the ability of E. coli membranes to incorporate exogenously added fatty acids such as oleic acid (OA). The use of radiolabelled OA allows to follow the incorporation of this fatty acid into membrane phospholipids of E. Coli and its release upon PLA2-mediated hydrolysis of these membranes. Preincubation of the samples, before the assay, with a specific inhibitor or a neutralizing specific antibody directed against the given sPLA2 can indicate which sPLA2 type is detected.\nAn overnight culture of E. coli was diluted 1:20 in Luria Broth (LB) medium and incubated at 37° C. for 5 h with vigorous shaking in the presence of 1 mCi/ml [3H]OA (NET 289, NEN, 5 mCi/ml). […]\nThe reaction was carried out in a 37° C. water bath for 30 min and stopped with stop buffer containing 0.1 M EDTA and 0.2% free-fatty acids BSA. Then the tubes were centrifuged to spin down E. Coli membranes and aliquotes of supernatants were counted to monitor the [3H]OA released from these membranes. […]\nThe sPLA2 activity (A) is calculated as follows: A=A1−A2/B×100. […]\nA is expressed as the % hydrolysis of the total radioactivity incorporated in the E. coli membranes."}, "[8]": {"molecular_target": "T6, sPLA2GIID (Homo sapiens, UniProt Q9UNK4)", "T6 sequence (Q9UNK4 21-145)": "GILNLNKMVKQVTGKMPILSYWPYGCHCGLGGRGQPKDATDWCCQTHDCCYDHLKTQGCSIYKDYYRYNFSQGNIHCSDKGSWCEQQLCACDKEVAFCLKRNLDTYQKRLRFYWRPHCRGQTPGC", "assay": "sPLA2 specificity panel (Table 1)", "format": "biochemical", "details": "panel of secreted PLA2, result in words"}, "[9]": {"molecular_target": "T7, Recombinant PLA2G1B (Homo sapiens, UniProt P04054)", "T7 construct": "made in house; host or cells: E. coli (inclusion bodies, urea-solubilized, renatured, HPLC-purified)", "T7 sequence (P04054 23-148)": "as the sequence (P04054 23-148) above", "assay": "Bioassay of IL-7-induced pSTAT5 nuclear translocation in CD4 T cells exposed to recombinant PLA2G1B", "format": "cell-based", "description": "sPLA2G1B was produced in E. Coli. Inclusion bodies were solubilized in urea and afterwards renatured. sPLA2G1B was further purified by HPLC. Homogeneity of the preparations was verified by MassSpectrometry (Malditoff). The specific activity of the enzyme was always measured and compared to standard preparations.\nas §1\nThe experiment was repeated twice. From the experimental data we derived the corresponding theoretical curve that gives the IC50."}, "[10]": {"details": "recombinant PLA2G1B 75 nanoM, pre-exposed 30 mn to compound, FIG. 1"}},
  "data": [
    {"smiles": "CCc1c(C(=O)C(N)=O)c2c(OCC(=O)O)cccc2n1Cc1ccccc1", "note": "[Compound B]", "values": [
      {"measurement": "recognition/binding/activity towards sPLA2GIII (group III PLA2)", "setting": "[1]", "value": "does not recognize or bind"},
      {"measurement": "recognition/binding/activity towards sPLA2GIII (group III PLA2)", "setting": "[1]; listed as compound B", "value": "no activity"},
      {"measurement": "IC50 sPLA2GIIE", "setting": "[2]", "value": "significant IC50"},
      {"measurement": "reversion of inhibition of pSTAT5 nuclear translocation", "setting": "[3]; 1% plasma, FIG. 4", "value": "the reversion is complete"},
      {"measurement": "reversion of inhibition of pSTAT5 nuclear translocation", "setting": "[3]; 3% plasma, FIG. 4", "value": "about 90%"},
      {"measurement": "reversal of plasma/sera-induced inhibition of IL-7-induced NT pSTAT5", "setting": "[3]; sera at 1% or 3% dilution, 5 additional patients, FIG. 4", "value": "completely reverse this inhibition"},
      {"measurement": "reversal of plasma/sera-induced inhibition of IL-7-induced NT pSTAT5", "setting": "[3]; sera at 1% or 3% dilution, 5 additional patients, FIG. 4, listed as compound B", "value": "totally reversed this inhibition"},
      {"measurement": "reversal of plasma/sera-induced inhibition of IL-7-induced NT pSTAT5", "setting": "[3]; sera at 3% dilution, five sera, FIG. 3", "value": "revert the inhibitory activity of the plasma"},
      {"measurement": "reversal of plasma/sera-induced inhibition of IL-7-induced NT pSTAT5", "setting": "[3]; sera at 3% dilution, five sera, FIG. 3, listed as compound B", "value": "totally reversed this inhibition"},
      {"measurement": "plateau inhibition when plasma is used", "setting": "[3]; plasma of viremic patients", "value": "≥ 90", "unit": "%"},
      {"measurement": "IC50 sPLA2GIB", "setting": "[4]", "value": "significant IC50"},
      {"measurement": "recognition/binding of sPLA2GXIIA", "setting": "[5]", "value": "does not recognize or bind"},
      {"measurement": "IC50 sPLA2GV", "setting": "[6]", "value": "significant IC50"},
      {"measurement": "inhibitory effect on sPLA2G1B activity", "setting": "[7]", "value": "particularly strong inhibitory effect"},
      {"measurement": "IC50 sPLA2GIID", "setting": "[8]", "value": "significant IC50"},
      {"measurement": "IC50", "setting": "[9]", "value": 6.01, "unit": "µM"},
      {"measurement": "concentration at which inhibitory effects are maximum", "setting": "[9]; [10]", "value": 8, "unit": "µM"},
      {"measurement": "concentration at which inhibitory effects begin", "setting": "[9]; [10]", "value": 5, "unit": "µM"},
      {"measurement": "plateau, maximum inhibition", "setting": "[9]; recombinant enzyme in serum free buffer", "value": "around 80%"}
    ]}
  ]
}
